Data reported in patent publication US20140088006A1, “Stem Cell Mobilization and Tissue Repair and Regeneration” (Wellstat Therapeutics Corporation, priority 2011, published 2014).
“And” between values parts separate entries of the source, which are not always exact repeats. Equal values may be shown once. “Also recorded” adds a separate entry of the source. No end group written: not given here.

Assays:
HSC and HPC = assay: CFU-GM / CFU-GEMM colony assay after 4 daily injections of G-CSF and Compound X; assay type: in vivo, mice; conditions: for CFU-GEMM numbers, MEAN / CFU-GM numbers, MEAN / CFU-GEMM numbers / CFU-GM numbers: 5 μg/mouse each agent s.c. daily for 4 days; for CFU-GEMM numbers / CFU-GM numbers: individual dishes; for Fold increase in number of CFU-GM / Fold increase in number of CFU-Mix (CFU-GEMM): multiple injections, 5 μg/mouse each agent
Method: Compound X and Neupogen (rG-CSF Amgen, lot# P043601) were diluted in PBS. Mice received subcutaneous injections of PBS, Compound X (5 μg/mouse), G-CSF (5 μg/mouse) or Compound X (5 μg/mouse)+G-CSF (5 μg/mouse) for four consecutive days. […] Mononuclear cells were isolated by density gradient separation from pooled blood. […] Blood was also collected and processed on day 8 for colony assay. Results are shown in Tables 10, 11, and 12 and in FIG. 5.

[1] = test system: human umbilical cord blood CD34+ cells; assay: Transwell migration of CD34+ cells toward SDF-1α; assay type: cell-based
Method: CD34^+ cell migration toward 100 ng/mL SDF-1α in a Corning Transwell device (24 well format, 5 μm pore size, polycarbonate membrane) was studied with and without Compound X and in the presence or absence of either anti-CXCR4 antibody or the CXCR4 antagonist AMD3100.
The CD34^+ population of cells from human umbilical cord blood was obtained from Lonza, defrosted and expanded ex vivo with cytokine cocktail for 6 days according to standard procedures. Briefly, 10 wells of two 12 well dishes were seeded at a density of 8×10^4 cells per well in 2 mL of CellGenix serum free growth medium (SCGM). Cells were allowed to expand in a 37° C. incubator (5% CO2, 86% RH) for 6 days. During the expansion, the 10 wells of one of the two plates received treatments of Compound X to a final concentration of 5 ng/mL (10 μL from freshly prepared 1 μg/mL stock in SCGM) at 24 hours and 72 hours after initiation of the culture.
3 hours prior to the start of the migration assay, both control and Compound X expanded cells were pulsed with either 0, 5 ng/mL or 5 μg/mL Compound X. Migration assay was performed according to the method described (Tavor et al. 2005). Cells were centrifuged for 5 minutes at 1100 RPM and resuspended at a density of 2×10^6 cells/mL in CellGenix SCGM serum free medium containing 1% Fraction V BSA either in the presence or absence of 5 ng/mL or 5 μg/mL Compound X for 3 hours. The feeder tray (bottom) was prepared with 600 μL of serum free SCGM supplemented with 1% BSA in the presence or absence of SDF-1α. All treatments were conducted in triplicate. The wells of the migration chamber (top) received 100 μL of cells from the 2×10^6 cells/mL suspensions, preincubated with 5 ng/mL or 5 μg/mL Compound X or Control. All treatments were conducted in triplicates. The plates were placed in a 37° C. incubator (5% CO2, 86% RH) and cells were allowed to migrate for 4 hours. […]
The cells were thawed at room temperature. […] 150 μL of the resulting cell lysates were transferred to a new 96 well plate and the fluorescence was read on a […] SpectraMax M2 fluorimeter (ex 485, em 538). […]

Sequence: FPHFDLSHGSAQV [Compound X, tridecapeptide that acts on stem cells]
- CFU-GEMM numbers, MEAN (HSC and HPC; Day 4): 2.4 per 100000 mononuclear cells
- CFU-GM numbers, MEAN (HSC and HPC; Day 4): 9.6 per 100000 mononuclear cells
- CFU-GEMM numbers (HSC and HPC; Day 4): 3 per 100000 mononuclear cells (2×) and 0 per 100000 mononuclear cells and 4 per 100000 mononuclear cells and 2 per 100000 mononuclear cells
- CFU-GM numbers (HSC and HPC; Day 4): 7 per 100000 mononuclear cells and 6 per 100000 mononuclear cells and 13 per 100000 mononuclear cells and 11 per 100000 mononuclear cells (2×)
- CFU-GEMM numbers, MEAN (HSC and HPC; Day 8): 0.6 per 100000 mononuclear cells
- CFU-GM numbers, MEAN (HSC and HPC; Day 8): 0.6 per 100000 mononuclear cells
- CFU-GEMM numbers (HSC and HPC; Day 8): 1 per 100000 mononuclear cells (3×) and 0 per 100000 mononuclear cells (2×)
- CFU-GM numbers (HSC and HPC; Day 8): 1 per 100000 mononuclear cells (3×) and 0 per 100000 mononuclear cells (2×)
- number of CFU-GEMM or CFU-GM (HSC and HPC; 5 μg/mouse s.c. daily for 4 days, day 8): no difference found
- Fold increase in number of CFU-GM (HSC and HPC; Day 4): 1.9 Fold
- Fold increase in number of CFU-Mix (CFU-GEMM) (HSC and HPC; Day 4, 1 hr after the last injection): 1.7 Fold
- Fold increase in number of CFU-GM (HSC and HPC; Day 8): 0 Fold
- Fold increase in number of CFU-Mix (CFU-GEMM) (HSC and HPC; Day 8): 0 Fold
- interference with the effect of AMD3100 or anti CXCR4 antibody on migration ([1]; 5 ng/mL Compound X): did not interfere
- CD34+ cell Transwell migration toward SDF-1α ([1]; cells expanded with 5 ng/mL and/or pulsed 3 hours with Compound X, 100 ng/mL SDF-1α, 4 hours): no significant difference; also recorded: had no effect
